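How tested: cells in 96-well plates exposed to compound for 48 hours at five concentrations. Abbreviation: GI50, concentration required for 50% inhibition of growth. TGI denotes the concentration required for complete inhibition of growth.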
What was measured:
Experiment in all cases: DTP human tumour cell line panel, 48 h
[1] = test system: CAKI-1 renal
[2] = test system: HCC-2998 colon
[3] = test system: HCT-116 colon
[4] = test system: HOP-92 NSCLC
[5] = test system: HT29 colon
[6] = test system: SF-539 CNS
[7] = test system: SK-MEL-2 melanoma
[8] = test system: SK-OV-3 ovarian
[9] = test system: HL-60(TB) leukemia
[10] = test system: NCI/ADR-RES ovarian

| SMILES | GI50 [1] [µM] | TGI [1] [µM] | GI50 [2] [µM] | TGI [2] [µM] | GI50 [3] [µM] | TGI [3] [µM] | GI50 [4] [µM] | TGI [4] [µM] | GI50 [5] [µM] | TGI [5] [µM] | GI50 [6] [µM] | TGI [6] [µM] | GI50 [7] [µM] | TGI [7] [µM] | GI50 [8] [µM] | TGI [8] [µM] | TGI [9] [µM] | GI50 [10] [µM] | TGI [10] [µM] | GI50 [9] [µM] |
| --- | --- | --- | --- | --- | --- | --- | --- | --- | --- | --- | --- | --- | --- | --- | --- | --- | --- | --- | --- | --- |
| O=C([O-])c1ccccc1Nc1ccccn1.O=C([O-])c1ccccc1Nc1ccccn1.[Ni+2] | > 100 | > 100 | > 100 | > 100 | > 100 | > 100 | 37.1 | 92.8 | > 100 | > 100 | 72.4 | > 100 | > 100 | > 100 | > 100 | > 100 |  |  |  |  |
| C[N+](C)(C)CC(=O)N/N=C(/Cc1nc2c3c(ccc2[nH]c1=O)C(=O)c1ccccc1C3=O)C(=O)Nc1ccc(Cl)c(Cl)c1 |  | 87 |  | > 100 |  | > 100 |  | 99.8 |  | > 100 |  | > 100 |  | > 100 |  | > 100 | > 100 |  |  |  |
| CCCc1[nH]nc(CCC(=O)N(Cc2ccccc2)Cc2ccccc2)c1CC |  | > 100 |  | > 100 |  |  |  |  |  | > 100 |  | > 100 |  | > 100 |  | > 100 |  |  |  |  |
| C=CCc1c2c(c(OC)c3ccoc13)C(=O)/C(=C/c1ccccc1OC)O2 | 3.15 | 35.2 | 2.85 | 7.85 | 3.29 | > 100 | 2.07 | 6.2 | 3.98 | > 100 | 5.45 | 72.8 | 6.06 | > 100 | 5.45 | 35.1 |  | 2.82 | 10.8 |  |
| Cc1cccc(NC(=O)CC(=O)N2N=C(N(CCC#N)c3ccc(Cl)cc3)CC2c2ccccc2)c1 (centres undefined) |  | > 100 |  | > 100 |  | > 100 |  | > 100 |  | > 100 |  | > 100 |  |  |  |  | > 100 |  |  |  |
| Cc1ccc(-c2c(N)[n+]([O-])c3ccccc3[n+]2[O-])cc1 |  | 9.97 |  | 30.1 |  |  |  | > 100 |  | 31.4 |  | 29.3 |  | 22.9 |  | 35.9 | > 100 |  |  |  |
| COc1c2c(c3c(c1CCC(=O)O)OC(C)(C)C=C3)OC(C)(C)C=C2 |  | > 100 |  | > 100 |  | > 100 |  |  |  | > 100 |  |  |  | > 100 |  | > 100 | > 100 |  | > 100 |  |
| N#C/C(=C1\OC(=O)C(c2ccc(Br)cc2)=C1O)c1ccc(Br)cc1 |  | 35.6 |  | 28.9 |  | 32.4 |  | 30 |  | 34.5 |  | 30 |  |  |  | 39.9 | 44.6 |  |  |  |
| C1CCSCCCCSCCCCSCCCCSC1 |  | > 100 |  | > 100 |  | > 100 |  | > 100 |  | > 100 |  | > 100 |  | > 100 |  | > 100 |  |  | > 100 |  |
| CN(C)/C=C/c1nnc([N+](=O)[O-])s1 |  | 40.5 |  | 33.2 |  | 26.2 |  |  |  | 14.6 |  | 23.4 |  | 39.3 |  | 55.2 |  |  | 37.7 |  |
| COc1cccc(NC(=O)CC(=O)N2N=C(N(CCC#N)c3ccc(Cl)cc3)CC2c2ccccc2)c1 (centres undefined) |  | > 100 |  | > 100 |  | > 100 |  | > 100 |  | > 100 |  | > 100 |  | > 100 |  | > 100 | > 100 |  |  |  |
| CC(=O)NNc1nc(C)c(C(=O)NNC(=O)C(=O)Nc2ccccc2C#N)s1 |  | > 100 |  | > 100 |  | > 100 |  | > 100 |  | > 100 |  | > 100 |  | > 100 |  | > 100 | > 100 |  |  |  |
| O=C1c2ccccc2-c2c1c1ccccc1c(=O)n2CCCNCCCNCCCn1c2c(c3ccccc3c1=O)C(=O)c1ccccc1-2 | 0.342 | 1.7 | < 0.0162 | 0.167 | < 0.01 | 0.476 | 0.587 | 2.18 | < 0.01 | 0.135 |  |  | 15 | 28.2 | 1.9 | 6.04 |  | 0.319 | 1.98 |  |
| COc1cc2c(cc1OC)C(N(C)C)C(c1ccccc1)=C2Cl (centres undefined) |  |  |  |  |  |  |  | 36.7 |  | 36.4 |  | 37.7 |  | 36 |  | 45.9 | 65.8 |  |  |  |
| COc1ccc(C(=O)/C=C/c2ccc(/C=C/c3cc(OC)c(OC)c(OC)c3)cc2)cc1 | 14.6 | > 100 | 38.5 | > 100 | 2.62 | > 100 |  |  | 4.17 | > 100 | 12.2 | 78.3 | 18.9 | > 100 | 15.6 | 64.5 | > 100 | 5.46 | > 100 | 4.49 |
| COc1ccc(-c2ccc(/C=N/n3c(COc4ccc(Cl)cc4Cl)n[nH]c3=S)o2)c([N+](=O)[O-])c1 | 17.3 | 36.9 |  |  | 17.5 | 31.3 |  |  | 34.2 | 79.6 | 25.7 | 49.7 |  |  | 23.6 | > 100 | 51.2 | 19.8 | 46.4 | 21.5 |
| NC(=S)N/N=C(/CC(=O)c1ccccc1)C(=O)Nc1ccc(Cl)c(Cl)c1 |  | > 100 |  | > 100 |  | > 100 |  | > 100 |  | > 100 |  | > 100 |  | > 100 |  | > 100 | > 100 |  |  |  |
| CC(C)(C)C#CC1=C(Br)C(=O)OC1 | 2.38 | 6.95 | 1.59 | 3.12 |  |  | 2.82 | 9.2 | 0.116 | > 100 | 2.74 | 11.1 | 12.6 | 31.7 | > 100 | > 100 |  | 0.426 | 2.8 |  |
